From US4248870A, “Maytansinoids and use” (Takeda Chemical Industries, Ltd., priority 1979, dated 1981)
Values after ≈ are worked out from the molar mass of the structure shown.

Legend:
[1] = test system: melanoma B-16; assay: Therapeutic test in mice, melanoma B-16 transplanted intraperitoneally (life span prolongation); type: in vivo; settings: intraperitoneally once daily for 9 consecutive days
Protocol: (§1) Therapeutic tests were carried out in mice according to NCI-protocols 1,200 and 1,300, Cancer Chemother, Reports, Part 3, 1972, Vol. 3, No. 2, in which leukemia P-388 and melanoma B-16 tumor cells had been intraperitoneally transplanted, compound (I) being administered intraperitoneally once daily for 9 consecutive days.

[2] = test system: Tetrahymena pyriformis W; assay: Antiprotozoal activity, growth inhibition by serial dilution method; type: cell-based; settings: 28° C., 44 to 48 hours, pH 7.0, serial dilution method
Protocol: Antiprotozoal activity of compound (I) was assayed with Tetrahymena pyriformis W as the test organism and a medium composed of 20 g tryptose-peptone (Difco Co.), 1 g yeast extract, 2 glucose, 1000 ml distilled water, 10 ml 1 M phosphate buffer (pH 7.0) as the assay medium. The microorganism was incubated at 28° C. for 44 to 48 hours and the growth inhibitory activity of compound (I) was assayed by the serial dilution method.

[3] = test system: leukemia P-388; assay: Therapeutic test in mice, leukemia P-388 transplanted intraperitoneally (life span prolongation); type: in vivo; settings: intraperitoneally once daily for 9 consecutive days
Protocol: as §1

In the case of `COc1cc2cc(c1Cl)N(C)C(=O)CC(OC(=O)C1CCCCC1)C1(C)OC1C(C)C1CC(O)(NC(=O)O1)C(OC)C=CC=C(C)C2` (centres unmarked) [Maytansinol 3-cyclohexane carboxylate, Maytansinol 3-cyclohexanecarboxylate], the “Antitumor activities B-16 (T/C %)” value ([1]; 25 μg/kg) was 193%, the “Antitumor activities B-16 (T/C %)” value ([1]; 50 μg/kg) was 188% and the “Antitumor activities B-16 (T/C %)” value ([1]; 100 μg/kg) was 193%. It also gave an MIC [2] of less than 2 µg/mL.
With `COc1cc2cc(c1Cl)N(C)C(=O)CC(OC(=O)CCc1ccccc1)C1(C)OC1C(C)C1CC(O)(NC(=O)O1)C(OC)C=CC=C(C)C2` (centres unmarked) [Maytansinol 3-(3-phenyl)propionate, Maytansinol 3-phenylpropionate] the MIC [2] was 2 to 4 µg/mL (≈ 2.87 to 5.74 µM).
Compound `COc1cc2cc(c1Cl)N(C)C(=O)CC(OC(=O)c1ccccc1)C1(C)OC1C(C)C1CC(O)(NC(=O)O1)C(OC)C=CC=C(C)C2` (centres unmarked) [Maytansinol 3-benzoate] has an MIC [2] of 4 µg/mL (≈ 5.98 µM).
`COc1cc2cc(c1Cl)N(C)C(=O)CC(OC(=O)C1CC1)C1(C)OC1C(C)C1CC(O)(NC(=O)O1)C(OC)C=CC=C(C)C2` (centres unmarked) [Maytansinol 3-cyclopropane carboxylate, Maytansinol 3-cyclopropanecarboxylate] was tested, and the MIC [2] was 4 µg/mL (≈ 6.32 µM).
`COc1cc2cc(c1Cl)N(C)C(=O)CC(OC(=O)c1ccc(Cl)cc1)C1(C)OC1C(C)C1CC(O)(NC(=O)O1)C(OC)C=CC=C(C)C2` (centres unmarked) [Maytansinol 3-(p-chloro)benzoate, Maytansinol 3-p-chlorobenzoate] showed an MIC [2] of no less than 4 µg/mL.
`COc1cc2cc(c1Cl)N(C)C(=O)CC(OC(=O)c1cccs1)C1(C)OC1C(C)C1CC(O)(NC(=O)O1)C(OC)C=CC=C(C)C2` (centres unmarked) [Maytansinol 3-(2-thiophene)carboxylate] gave an MIC [2] of no less than 4 µg/mL.
For `COc1cc2cc(c1Cl)N(C)C(=O)CC(OC(=O)Cc1ccccc1)C1(C)OC1C(C)C1CC(O)(NC(=O)O1)C(OC)C=CC=C(C)C2` (centres unmarked) [Maytansinol 3-phenylacetate], the “Antitumor activities B-16 (T/C %)” value ([1]; 12.5 μg/kg) was 207%, the “Antitumor activities B-16 (T/C %)” value ([1]; 25 μg/kg) was 230% and the MIC [2] was less than 2 µg/mL. For the same compound, the “Antitumor activities P-388 (T/C %)” value ([3]; 12.5 μg/kg) was 164% and the “Antitumor activities P-388 (T/C %)” value ([3]; 25 μg/kg) was 185%.
For `COc1cc2cc(c1Cl)N(C)C(=O)CC(OC(=O)c1ccccn1)C1(C)OC1C(C)C1CC(O)(NC(=O)O1)C(OC)C=CC=C(C)C2` (stereo not drawn) [Maytansinol 3-α-picolinate, Maytansinol 3-picolinate], the “Antitumor activities B-16 (T/C %)” value ([1]; 100 μg/kg) was 176%, the “Antitumor activities B-16 (T/C %)” value ([1]; 200 μg/kg) was 173% and the MIC [2] was no less than 4 µg/mL. For the same compound, the “Antitumor activities P-388 (T/C %)” value ([3]; 50 μg/kg) was 193% and the “Antitumor activities P-388 (T/C %)” value ([3]; 100 μg/kg) was 185%.
`COc1cc2cc(c1Cl)N(C)C(=O)CC(OC(=O)c1ccco1)C1(C)OC1C(C)C1CC(O)(NC(=O)O1)C(OC)C=CC=C(C)C2` (centres unmarked) [Maytansinol 3-(2-furane)carboxylate, Maytansinol 3-(2-furan)carboxylate] was tested, and the MIC [2] was no less than 4 µg/mL.
